# Measurements: ChEMBL document CHEMBL4627388, “Structural Specificity of Flavonoids in the Inhibition of Human Fructose 1,6-Bisphosphatase” (J Nat Prod, 2020)
# Molecular target: T1, Fructose-1,6-bisphosphatase 1 (Homo sapiens) (UniProt P09467)
# T1 sequence (whole entry): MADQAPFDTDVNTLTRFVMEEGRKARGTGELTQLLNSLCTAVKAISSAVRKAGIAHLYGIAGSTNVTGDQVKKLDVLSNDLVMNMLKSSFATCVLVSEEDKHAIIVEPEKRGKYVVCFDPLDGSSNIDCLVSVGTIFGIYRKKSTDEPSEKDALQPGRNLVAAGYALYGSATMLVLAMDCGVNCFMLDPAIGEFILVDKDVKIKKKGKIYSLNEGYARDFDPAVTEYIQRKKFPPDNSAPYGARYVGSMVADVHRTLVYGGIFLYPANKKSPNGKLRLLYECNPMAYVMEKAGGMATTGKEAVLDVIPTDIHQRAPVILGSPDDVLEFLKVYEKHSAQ
# Assay: Inhibition of human liver FBP1 at 200 uM incubated for 5 mins by fluorescence method relative to control
row,SMILES,inhibition [%]
1,O=c1c(O)c(-c2ccccc2)oc2cc(O)cc(O)c12,< 20
2,O=c1c(O)c(-c2ccc(O)c(O)c2)oc2ccccc12,20
3,O=c1c(O)c(-c2ccc(O)c(O)c2)oc2cc(O)cc(O)c12,< 20
4,O=C1C[C@@H](c2ccc(O)c(O)c2)Oc2cc(O)cc(O)c21,< 20
5,COc1ccc(-c2cc(=O)c3c(O)cc(O)cc3o2)cc1OC,< 20
6,O=c1cc(-c2ccccc2)oc2cc(O)ccc12,< 20
7,O=c1cc(-c2ccc(O)c(O)c2)oc2cc(O)c(Cl)c(O)c12,< 20
8,COc1ccc(-c2oc3ccccc3c(=O)c2O)cc1OC,< 20
9,C[C@@H]1O[C@@H](OC[C@H]2O[C@@H](Oc3c(-c4ccc(O)c(O)c4)oc4cc(O)cc(O)c4c3=O)[C@H](O)[C@@H](O)[C@@H]2O)[C@H](O)[C@H](O)[C@H]1O,< 20
10,O=C(O)[C@H]1O[C@@H](Oc2cc3oc(-c4ccccc4)cc(=O)c3c(O)c2O)[C@H](O)[C@@H](O)[C@@H]1O,< 20
11,O=c1c(O)c(-c2ccc(O)c(O)c2)oc2c(O)c(O)ccc12,< 20
12,O=c1c(O)c(-c2cccc(O)c2)oc2cc(O)ccc12,< 20
13,O=c1cc(-c2ccc(O)cc2)oc2cc(O)ccc12,< 20
14,O=C1c2c(O)cc(O)cc2O[C@H](c2ccc(O)c(O)c2)[C@H]1O,< 20
15,O=c1cc(-c2ccc(O)c(O)c2)oc2cc(O)cc(O)c12,22
16,O=c1cc(-c2ccc(O)cc2)oc2ccccc12,< 20
17,COc1ccc(-c2cc(=O)c3c(O)cc(O)cc3o2)cc1,< 20
18,O=c1c(O)c(-c2ccc(O)cc2)oc2cc(O)ccc12,< 20
19,O=c1cc(-c2ccccc2)oc2c(O)c(O)cc(O)c12,< 20
20,O=C1C[C@@H](c2ccc(O)cc2)Oc2cc(O)cc(O)c21,< 20
21,O=c1cc(-c2ccccc2)oc2ccccc12,< 20
22,COc1cc(-c2cc(=O)c3c(O)cc(O)cc3o2)ccc1O,< 20
23,O=c1c(O)c(-c2cccc(O)c2)oc2cc(O)cc(O)c12,< 20
24,O=c1cc(-c2ccc(O)c(O)c2)oc2ccccc12,25
25,O=c1c(O)c(-c2ccc(O)c(O)c2)oc2c(O[C@@H]3O[C@H](CO)[C@@H](O)[C@H](O)[C@H]3O)c(O)cc(O)c12,< 20
26,O=c1c(O)c(-c2ccc(O)c(O)c2)oc2cc(O)c(O)c(O)c12,37

row,SMILES,inhibition [%]
1,Oc1ccc(-c2[o+]c3c(O)c(O)cc(O)c3cc2O)cc1O,46
2,O=c1cc(-c2cccc(O)c2)oc2ccccc12,< 20
3,O=c1cc(-c2ccc(O)c(O)c2)oc2cccc(O)c12,< 20
4,O=c1cc(-c2cccc(O)c2)oc2cccc(O)c12,< 20
5,O=c1cc(-c2ccc(O)cc2)oc2cc(O)cc(O)c12,< 20
6,O=c1c(Cl)c(-c2ccc(O)c(O)c2)oc2c(Cl)c(O)cc(O)c12,< 20
7,COc1ccc(-c2oc3cc(OC)ccc3c(=O)c2O)cc1,< 20
8,COc1ccc2c(=O)c(O)c(-c3ccc(O)c(O)c3)oc2c1OC,< 20
9,O=c1cc(-c2ccc(O)cc2)oc2cccc(O)c12,< 20
10,COc1cc2oc(-c3ccccc3)cc(=O)c2c(OC)c1OC,< 20
11,O=c1c(O)c(-c2ccc(O)cc2)oc2cc(O)cc(O)c12,< 20
12,O=c1c(Cl)c(-c2ccc(O)c(O)c2)oc2cc(O)cc(O)c12,< 20
13,O=c1c(O)c(-c2ccc(O)cc2O)oc2cc(O)cc(O)c12,< 20
14,COc1ccc(-c2oc3c(OCc4ccccc4)c(OCc4ccccc4)ccc3c(=O)c2O)cc1OC,< 20
15,COc1cc2oc(-c3ccccc3)cc(=O)c2c(O)c1O,46
16,O=c1cc(-c2ccc(O)c(O)c2)oc2cc(O)ccc12,< 20
17,O=c1c(Cl)c(-c2ccc(O)c(O)c2)oc2c(Cl)c(O)c(Cl)c(O)c12,< 20
18,O=c1cc(-c2cccc(O)c2)oc2cc(O)ccc12,< 20
19,COc1ccc(-c2oc3c(O)c(O)ccc3c(=O)c2O)cc1OC,33
20,O=c1cc(-c2ccccc2)oc2cccc(O)c12,< 20
21,COc1ccc2c(=O)c(O)c(-c3ccc(OCc4ccccc4)c(OCc4ccccc4)c3)oc2c1OC,< 20
22,O=c1c(O)c(-c2cc(O)c(O)c(O)c2)oc2cc(O)cc(O)c12,< 20
23,COc1cccc(-c2oc3cc(OC)ccc3c(=O)c2O)c1,< 20
24,O=c1cc(-c2ccccc2)oc2cc(O)cc(O)c12,< 20
25,O=c1cc(-c2ccc(O)c(O)c2)oc2c(Cl)c(O)cc(O)c12,< 20

# Molecular target: T2, Fructose-1,6-bisphosphatase 1 (Homo sapiens, UniProt P09467)
# T2 sequence (P09467 whole entry): T1 sequence (whole entry)
# Assay: Inhibition of human liver FBP1 incubated for 5 mins by fluorescence method
row,SMILES,IC50 [µM]
1,O=c1cc(-c2ccc(O)cc2)oc2cc(O)c(O)c(O)c12 [SCUTELLAREIN],38.2
2,O=c1c(O)c(-c2ccc(O)cc2)oc2c(O)c(O)cc(O)c12 [HERBACETIN],8.7
3,O=c1cc(-c2ccccc2)oc2cc(O)c(O)c(O)c12 [BAICALEIN],29
4,O=c1c(O)c(-c2ccc(O)c(O)c2)oc2c(O)c(O)cc(O)c12 [GOSSYPETIN],24
5,Nc1ncnc2c1ncn2[C@@H]1O[C@H](COP(=O)(O)O)[C@@H](O)[C@H]1O [ADENOSINE PHOSPHATE],2.6
